Experimental data: patent US7223733B2, “Modulation of TRIP-Br function and method of treating proliferative disorders” (National University of Singapore, priority 2004, dated 2007)
Where no end group is shown, it is not given here. [invdT] = inverted (3'-3') thymidine

Legend:
Format in all cases: cell-based, human
WI-38 cells = assay: BrdU incorporation, serum-induced S phase entry of WI-38 cells; settings: WI-38, 0.1 μM, 20 h; compared to unstimulated cells
Protocol: DNA enzyme transfection. WI-38 cells were rendered quiescent by cultivation in serum-free medium for 72 h before being transfected with DNA enzyme (0.1 μM) using Superfect as reported previously (Santiago, F. S., et al. Nat Med 5, 1264-1269 (1999)) in accordance to manufacturer's recommendations (Qiagen).
Cell proliferation assays. For the BrdU incorporation assays, growth-quiescent WI-38 cells in 96-well dishes were transfected with DNA enzyme and/or 100 ng of pCMV/E2F1, pCMV/DP1, pRSV/Cyclin E, or pCMV/Cdk2 and then exposed to Bromodeoxyuridine (BrdU, 100 μM) in the presence or absence of 10% FBS for 20 h. Bromodeoxyuridine (BrdU) incorporation was monitored with a calorimetric ELISA assay using a cell proliferation kit according to manufacturer's recommendations (Boehringer Mannheim). For manual cell count, growth-quiescent WI-38 cells in 24-well dishes were transfected with DNA enzyme and then exposed to 10% FBS for 72 h. The cells were rinsed with PBS, pH 7.4, and trypsinized, and 10 μl of cell suspension was taken from each sample and mixed with equal volume of trypan blue stain (Sigma, 0.4% w/v in 1×PBS). The number of unstained cells was enumerated manually using a hemocytometer. For colony formation assays, growth-quiescent WI-38 cells in 12-well dishes were transfected with DNA enzyme and then exposed to 10% FBS for 120 h. Cells were stained in situ with crystal violet (0.75% w/v hexamethyl-p-rosaniline chloride [SIGMA], 50% ethanol, 1.75% w/v paraformaldehyde, 0.25% w/v NaCl) for 10 min, and then rinsed thoroughly with deionized water to remove excess stains.
FIG. 13: (A) E-Br1 or E-Br2 suppresses serum-inducible S phase entry. Sub-confluent WI-38 cells were serum-starved for 72 h. Following DNA enzyme transfection, the cultures were re-stimulated with serum and allowed to proliferate in BrdU labeling medium. After 20 h, cells were assayed for BrdU incorporation with a colorimetric ELISA assay. Values represent the average of at least two independent experiments. […] Sub-confluent WI-38 cells were serum-starved for 72 h. […]

Fbxw7 mRNA = assay: Semi-quantitative RT-PCR of Fbxw7 in U2OS cells; settings: U2OS, 5, 10 or 20 μM
Protocol: Semi-quantitative RT-PCR. Total RNA was isolated from U2OS cells or U2OS-ER-E2F-1 cells (grown with or without 1.0 μM OHT and/or 10 μg/ml cycloheximide) using the TRIZOL® Reagent (Life Technologies). Total RNA (4 μg) was reverse transcribed using oligo-dT and M-MLV reverse transcriptase in a total reaction volume of 20 μl. Polymerase Chain Reactions (PCR) were carried out on 3 μl cDNA samples in the presence of […] deoxyribonucleotide triphosphates (dNTPs) and 40 μM of specific primer pairs in a total reaction volume of 50 μ. The cycling profile for PCR was as follow: 30 cycles of denaturation (94° C., 30 sec), annealing (51° C., 30 sec) and extension (72° C., 2 min), with a 2-minute initial denaturation step at 94° C. and a 10-minute terminal polishing step at 72° C. Sequences of gene-specific primers are available upon request. PCR amplification products were analyzed by agarose gel electrophoresis.
FIG. 8: The role(s) of the TRIP-Br integrator function in cyclin E regulation. […] U2OS cells exposed to 5, 10 or 20 μM of decoy peptides were analyzed for Fbxw7 mRNA transcript levels by semi-quantitative RT-PCR. H-actin was co-amplified as an internal control; (C) cyclin-E and Fbxw7 expression was analyzed by semi-quantitative RT-PCR using total RNA from sub-confluent U2OS ER-E2F-1 cells grown with or without OHT and/or cycloheximide (CHX) for 2 h as indicated. […]

PARP cleavage = assay: Western blot analysis of PARP cleavage in U2OS cells; settings: 50 μM decoy peptides, 72 h
Protocol: Denaturing SDS-PAGE and western blotting. Proteins from whole cell lysate and IP complexes were separated using standard denaturing polyacrylamide gel electrophoresis as described previously (Hsu, S. I. H., et al. EMBO J 20, 2273-2285 (2001)).
FIG. 6: Caspase assay. (A) Caspase 3 protease activity in U2OS cells exposed to either Eto (Etoposide) for 24 h or 50 μM decoy peptides for 48 or 72 h, were assayed using the Ac-DEVD-AFC fluorogenic substrate. […] Values represent the average +/− standard deviation of two independent experiments. Control: cells cultured in normal growth medium; Vehicle: cells cultured in the presence of 0.5% DMSO; (B) Western blot analysis of PARP cleavage. U2OS cells were exposed to either Eto (Etoposide) for 24 h or 50 μM decoy peptides for 72 h. Lane 1: Vehicle cells (cultured in the presence of 0.5% DMSO for 24 h); Lane 2: 25 μM Eto; Lane 3: 250 μM Eto; Lane 4: Vehicle (cells cultured in the presence of 0.5% DMSO for 72 h); Lane 5: *SCR; Lane 6: *Br1; Lane 7: *Br2.

Substance | BrdU incorporation on serum stimulation (WI-38 cells) | expression level of Fbxw7 mRNA (Fbxw7 mRNA) | PARP cleavage compared to vehicle or *SCR-treated control (PARP cleavage)
5′-T TACCCAACAGGCTAGCTACAACGAATATCACA-3′ (DNA TTACCCAACAGGCTAGCTACAACGAATATCACA; DNA, 3' [invdT], backbone not given here) [E-Br2] | significantly inhibited | – | –
5′-T TGCTCAGCAGGCTAGCTACAACGACTTGCTCA-3′ (DNA TTGCTCAGCAGGCTAGCTACAACGACTTGCTCA; DNA, 3' [invdT], backbone not given here) [E-Br1] | significantly inhibited | – | –
ERQIKIWFQNRRMKWKKATGCLLDDGLEGLFEDID (ERQIKIWFQNRRMKWKKATGCLLDDGLEGLFEDID-NH2) [*Br1] | – | down-regulated the expression level of Fbxw7 in a dose-dependent fashion | not associated with significant PARP cleavage
ERQIKIWFQNRRMKWKKTGFLTDLTLDDILFADID (ERQIKIWFQNRRMKWKKTGFLTDLTLDDILFADID-NH2) [*Br2] | – | down-regulated the expression level of Fbxw7 in a dose-dependent fashion | not associated with significant PARP cleavage
